# According to publication PMC7660650, “Chemical Starting Matter for HNF4α Ligand Discovery and Chemogenomics” (International Journal of Molecular Sciences, 2020):
# Values joined by “and” are separate entries in the source; they are usually repeats but may differ in a detail not shown here. Equal entries are not always repeated.
# Target: T1, Gal4-HNF4α (human HNF4α LBD) (Homo sapiens, UniProt P41235)
# T1 construct: uniprot entry: P41235-1, residues 142-377; expressed in transfected cells; host or cells: HEK293T
# T1 sequence (P41235 142-377): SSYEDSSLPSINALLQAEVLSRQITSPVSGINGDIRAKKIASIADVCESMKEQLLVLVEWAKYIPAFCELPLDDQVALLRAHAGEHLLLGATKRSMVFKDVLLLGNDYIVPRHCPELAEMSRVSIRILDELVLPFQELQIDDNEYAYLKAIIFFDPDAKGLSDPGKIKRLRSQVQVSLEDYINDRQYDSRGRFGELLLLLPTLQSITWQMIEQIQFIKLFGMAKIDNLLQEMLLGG
# Assay: Hybrid Gal4-HNF4α reporter gene assay in transiently transfected HEK293T cells
# Format: cell-based
# Conditions: Table S1, primary screening, 50 µM
compound,measurement,value
"Oc1ccc2cc[nH]c2c1 [Prestw-Frag-1374, Oc1ccc2cc[nH]c2c1]",HNF4a-screening_activity_(mean_of_n=2),1.128
"O=C(OC1CCCCC1)c1ccccc1O [Prestw-Frag-1382, Oc1ccccc1C(=O)OC1CCCCC1]",HNF4a-screening_activity_(mean_of_n=2),0.9579 and 1.189
"NCC(O)COc1cccc2ccccc12 (centres unmarked) [Prestw-Frag-1389, NCC(O)COc1cccc2ccccc12]",HNF4a-screening_activity_(mean_of_n=2),0.8528 and 1.218
"NS(=O)(=O)c1ccccc1C(F)(F)F [Prestw-Frag-1394, NS(=O)(=O)c1ccccc1C(F)(F)F]",HNF4a-screening_activity_(mean_of_n=2),0.846
"c1cc2c(cc1CN1CCNCC1)OCO2 [Prestw-Frag-1397, C(N1CCNCC1)c1ccc2OCOc2c1]",HNF4a-screening_activity_(mean_of_n=2),1.012
"c1cnc(N2CCNCC2)nc1 [Prestw-Frag-1398, C1CN(CCN1)c1ncccn1]",HNF4a-screening_activity_(mean_of_n=2),1.074 and 0.9138
"COC(=O)C(CO)c1ccccc1 (centres unmarked) [Prestw-Frag-1406, COC(=O)C(CO)c1ccccc1]",HNF4a-screening_activity_(mean_of_n=2),0.9811 and 0.9479
"Cc1c[nH]nc1C [Prestw-Frag-1408, Cc1c[nH]nc1C]",HNF4a-screening_activity_(mean_of_n=2),1.108
"NNC(=O)c1ccncc1 [Prestw-Frag-1419, NNC(=O)c1ccncc1]",HNF4a-screening_activity_(mean_of_n=2),0.9909
"NNC(=O)c1ccccc1 [Prestw-Frag-1420, NNC(=O)c1ccccc1]",HNF4a-screening_activity_(mean_of_n=2),1.278
"c1cnc2[nH]ncc2c1 [Prestw-Frag-1428, c1n[nH]c2ncccc12]",HNF4a-screening_activity_(mean_of_n=2),1.325
"NC(=O)c1ccccc1O [Prestw-Frag-1439, NC(=O)c1ccccc1O]",HNF4a-screening_activity_(mean_of_n=2),1.146
"c1ccc(-c2ccccc2-c2nnn[nH]2)cc1 [Prestw-Frag-1441, c1ccc(cc1)-c1ccccc1-c1nnn[nH]1]",HNF4a-screening_activity_(mean_of_n=2),1.051 and 0.7815
"c1ccc(CC2NCCc3ccccc32)cc1 (centres unmarked) [Prestw-Frag-1444, C(C1NCCc2ccccc12)c1ccccc1]",HNF4a-screening_activity_(mean_of_n=2),1.349
"COc1ccc(CCN(C)C)cc1OC [Prestw-Frag-1445, COc1ccc(CCN(C)C)cc1OC]",HNF4a-screening_activity_(mean_of_n=2),1.047 and 0.984
"CNCCc1ccc(OC)c(OC)c1 [Prestw-Frag-1446, CNCCc1ccc(OC)c(OC)c1]",HNF4a-screening_activity_(mean_of_n=2),1.187 and 1.106
"CCN(CC)Cc1cc(N)ccc1O [Prestw-Frag-1462, CCN(CC)Cc1cc(N)ccc1O]",HNF4a-screening_activity_(mean_of_n=2),1.135
"c1ccc(CNc2ccccn2)cc1 [Prestw-Frag-1475, C(Nc1ccccn1)c1ccccc1]",HNF4a-screening_activity_(mean_of_n=2),1.278
"CN(C)CCNCc1ccccc1 [Prestw-Frag-1476, CN(C)CCNCc1ccccc1]",HNF4a-screening_activity_(mean_of_n=2),1.113
"CC(=O)NCCc1c[nH]c2ccccc12 [Prestw-Frag-1478, CC(=O)NCCc1c[nH]c2ccccc12]",HNF4a-screening_activity_(mean_of_n=2),1.089
"COc1ccc2[nH]cc(CCN)c2c1 [Prestw-Frag-1480, COc1ccc2[nH]cc(CCN)c2c1]",HNF4a-screening_activity_(mean_of_n=2),1.025 and 1.119
"Nc1c(Cl)ccc2nsnc12 [Prestw-Frag-1492, Nc1c(Cl)ccc2nsnc12]",HNF4a-screening_activity_(mean_of_n=2),1.089
"Cc1cnc(C(=O)O)cn1 [Prestw-Frag-1494, Cc1cnc(cn1)C(O)=O]",HNF4a-screening_activity_(mean_of_n=2),0.7971 and 1.166
"O=C(O)c1cnccn1 [Prestw-Frag-1495, OC(=O)c1cnccn1]",HNF4a-screening_activity_(mean_of_n=2),1.013
"O=C(O)CC[C@H](NC(=O)c1ccccc1)C(=O)O [Prestw-Frag-1499, OC(=O)CC[C@H](NC(=O)c1ccccc1)C(O)=O]",HNF4a-screening_activity_(mean_of_n=2),1.11
"COc1cc(C)cc(C)c1C [Prestw-Frag-1506, COc1cc(C)cc(C)c1C]",HNF4a-screening_activity_(mean_of_n=2),1.143
"Cc1nccn1CCO [Prestw-Frag-1517, Cc1nccn1CCO]",HNF4a-screening_activity_(mean_of_n=2),0.9796 and 1.002
"CNCC(c1ccc(OC)cc1)C1(O)CCCCC1 (centres unmarked) [Prestw-Frag-1523, CNCC(c1ccc(OC)cc1)C1(O)CCCCC1]",HNF4a-screening_activity_(mean_of_n=2),1.103 and 1.105
"CN(C)C(=O)Oc1ccccc1 [Prestw-Frag-1540, CN(C)C(=O)Oc1ccccc1]",HNF4a-screening_activity_(mean_of_n=2),1.182
"Nc1ccc([N+](=O)[O-])cc1Cl [Prestw-Frag-1543, Nc1ccc(cc1Cl)[N+]([O-])=O]",HNF4a-screening_activity_(mean_of_n=2),0.9851
"COC(=O)C1=C(C)NC(C)=C(C(=O)OC)C1 [Prestw-Frag-1547, COC(=O)C1=C(C)NC(C)=C(C1)C(=O)OC]",HNF4a-screening_activity_(mean_of_n=2),0.9986
"CN1Cc2c(N)cccc2C(c2ccccc2)C1 (centres unmarked) [Prestw-Frag-1552, CN1CC(c2ccccc2)c2cccc(N)c2C1]",HNF4a-screening_activity_(mean_of_n=2),1.162
"CN1CCc2cccc(N)c2C1 [Prestw-Frag-1553, CN1CCc2cccc(N)c2C1]",HNF4a-screening_activity_(mean_of_n=2),1.039 and 1.009
"COc1ccc(N2CCN(c3ccc(N)cc3)CC2)cc1 [Prestw-Frag-1557, COc1ccc(cc1)N1CCN(CC1)c1ccc(N)cc1]",HNF4a-screening_activity_(mean_of_n=2),1.098
"O=c1[nH]nc(Cc2ccc(Cl)cc2)c2ccccc12 [Prestw-Frag-1559, Clc1ccc(Cc2n[nH]c(=O)c3ccccc23)cc1]",HNF4a-screening_activity_(mean_of_n=2),1.206 and 0.9531
"O=c1[nH]ncc2ccccc12 [Prestw-Frag-1560, O=c1[nH]ncc2ccccc12]",HNF4a-screening_activity_(mean_of_n=2),1.119
"O=c1[nH]nc(Cc2ccccc2)c2ccccc12 [Prestw-Frag-1561, O=c1[nH]nc(Cc2ccccc2)c2ccccc12]",HNF4a-screening_activity_(mean_of_n=2),1.103
"Cc1cc(C(C)(C)C)cc(C)c1CC1=NCCN1 [Prestw-Frag-1575, Cc1cc(cc(C)c1CC1=NCCN1)C(C)(C)C]",HNF4a-screening_activity_(mean_of_n=2),1.056
"O=c1[nH]c2ccccc2n1C1CCNCC1 [Prestw-Frag-1587, O=c1[nH]c2ccccc2n1C1CCNCC1]",HNF4a-screening_activity_(mean_of_n=2),1.041
"OCCOc1cccc2[nH]ccc12 [Prestw-Frag-1595, OCCOc1cccc2[nH]ccc12]",HNF4a-screening_activity_(mean_of_n=2),0.8145 and 1.05
"CCN1CCCC1CNC(=O)c1ccc(N)cc1 (centres unmarked) [Prestw-Frag-1632, CCN1CCCC1CNC(=O)c1ccc(N)cc1]",HNF4a-screening_activity_(mean_of_n=2),0.8541
"NCCc1c[nH]c2ccc(O)cc12 [Prestw-Frag-1643, NCCc1c[nH]c2ccc(O)cc12]",HNF4a-screening_activity_(mean_of_n=2),1.007
"Oc1ccc2[nH]ccc2c1 [Prestw-Frag-1645, Oc1ccc2[nH]ccc2c1]",HNF4a-screening_activity_(mean_of_n=2),1.016
"Cc1cc(N)no1 [Prestw-Frag-1647, Cc1cc(N)no1]",HNF4a-screening_activity_(mean_of_n=2),0.9773
"Nc1ccnn1-c1ccccc1 [Prestw-Frag-1648, Nc1ccnn1-c1ccccc1]",HNF4a-screening_activity_(mean_of_n=2),1.023
"OC(c1ccccc1)(c1ccccc1)C1CCNCC1 [Prestw-Frag-1654, OC(C1CCNCC1)(c1ccccc1)c1ccccc1]",HNF4a-screening_activity_(mean_of_n=2),1.142 and 1.152
"NC(=O)CN1C(=O)c2ccccc2C1=O [Prestw-Frag-1661, NC(=O)CN1C(=O)c2ccccc2C1=O]",HNF4a-screening_activity_(mean_of_n=2),1.028
"Cc1ccc(S(=O)(=O)NC(N)=O)cc1 [Prestw-Frag-1667, Cc1ccc(cc1)S(=O)(=O)NC(N)=O]",HNF4a-screening_activity_(mean_of_n=2),1.077
"O=c1[nH]nc2ccccn12 [Prestw-Frag-1673, O=c1[nH]nc2ccccn12]",HNF4a-screening_activity_(mean_of_n=2),1.045
"O=C(O)C(CO)c1ccccc1 (centres unmarked) [Prestw-Frag-1686, OCC(C(O)=O)c1ccccc1]",HNF4a-screening_activity_(mean_of_n=2),1.109
"CC(N)COc1ccccc1 (centres unmarked) [Prestw-Frag-1691, CC(N)COc1ccccc1]",HNF4a-screening_activity_(mean_of_n=2),0.7151 and 1.122
"c1cc2c(s1)CCNC2 [Prestw-Frag-1694, C1Cc2sccc2CN1]",HNF4a-screening_activity_(mean_of_n=2),1.028 and 1.127
"Clc1cccc(CN2CCNCC2)c1 [Prestw-Frag-1700, Clc1cccc(CN2CCNCC2)c1]",HNF4a-screening_activity_(mean_of_n=2),1.014 and 1.092
"Clc1ccc(-c2cncnc2)cc1 [Prestw-Frag-1704, Clc1ccc(cc1)-c1cncnc1]",HNF4a-screening_activity_(mean_of_n=2),0.9459 and 1.223
"CCCC(=O)Nc1ccc(O)c(C(C)=O)c1 [Prestw-Frag-1716, CCCC(=O)Nc1ccc(O)c(c1)C(C)=O]",HNF4a-screening_activity_(mean_of_n=2),0.8359
"CCCC(=O)Nc1cccc(C(C)=O)c1 [Prestw-Frag-1717, CCCC(=O)Nc1cccc(c1)C(C)=O]",HNF4a-screening_activity_(mean_of_n=2),0.9496 and 0.8871
"c1ccc2c(c1)CNc1ccccc1C2 [Prestw-Frag-1722, C1Nc2ccccc2Cc2ccccc12]",HNF4a-screening_activity_(mean_of_n=2),1.196 and 1.047
"COc1cc(C(N)=O)cc(OC)c1OC [Prestw-Frag-1731, COc1cc(cc(OC)c1OC)C(N)=O]",HNF4a-screening_activity_(mean_of_n=2),0.8442
"CCN(CC)CCOC(=O)c1ccccc1 [Prestw-Frag-1735, CCN(CC)CCOC(=O)c1ccccc1]",HNF4a-screening_activity_(mean_of_n=2),0.9109 and 1.027
"O=C1CCOc2ccccc21 [Prestw-Frag-1740, O=C1CCOc2ccccc12]",HNF4a-screening_activity_(mean_of_n=2),0.9806
"Clc1ccc(C(c2ccccc2)N2CCNCC2)cc1 (centres unmarked) [Prestw-Frag-1741, Clc1ccc(cc1)C(N1CCNCC1)c1ccccc1]",HNF4a-screening_activity_(mean_of_n=2),1.086
"CC(=O)NCc1cccnc1 [Prestw-Frag-1745, CC(=O)NCc1cccnc1]",HNF4a-screening_activity_(mean_of_n=2),0.9231 and 1.026
"O=C(NCc1cccnc1)c1ccc(O)cc1 [Prestw-Frag-1747, Oc1ccc(cc1)C(=O)NCc1cccnc1]",HNF4a-screening_activity_(mean_of_n=2),0.7115 and 0.9722
"CC(=O)Nc1ncc([N+](=O)[O-])s1 [Prestw-Frag-1750, CC(=O)Nc1ncc(s1)[N+]([O-])=O]",HNF4a-screening_activity_(mean_of_n=2),1.04 and 0.8827
"O=C(O)CCCc1ccc(-c2ccccc2)cc1 [Prestw-Frag-1767, OC(=O)CCCc1ccc(cc1)-c1ccccc1]",HNF4a-screening_activity_(mean_of_n=2),0.6264
"Fc1cccc(F)c1N1CCNCC1 [Prestw-Frag-1806, Fc1cccc(F)c1N1CCNCC1]",HNF4a-screening_activity_(mean_of_n=2),0.9867 and 1.428
"COc1ccc(OCC(N)=O)cc1 [Prestw-Frag-1812, COc1ccc(OCC(N)=O)cc1]",HNF4a-screening_activity_(mean_of_n=2),0.9996 and 1.207
"c1ccc(C(c2ccccc2)N2CCCNCC2)cc1 [Prestw-Frag-1817, C1CNCCN(C1)C(c1ccccc1)c1ccccc1]",HNF4a-screening_activity_(mean_of_n=2),0.7059 and 1.011
